Here are results for ten compounds from patent US12403137B2, “Compounds and methods of use” (Tango Therapeutics, Inc., priority 2019, dated 2025).

Some results are limits rather than exact numbers.

The target in assay [1] is T1, PRMT5 (Homo sapiens, UniProt O14744).
T1 construct: purchased Viva (custom protein)
Description: PRMT5 inhibition assay with MTA as cofactor. The assay is classed as biochemical. The settings on record: for IC50: against PRMT5 with MTA as cofactor; for SAM/MTA Ratio: ratio of Ki in the presence of SAM to Ki in the presence of MTA, Ki=IC50/1.5 (SAM), Ki=IC50/13.5 (MTA). The text has this:
(§1) The Ki values can be calculated from the IC50 values as described in the Examples section. As detailed in the Examples section, for the assay performed in the presence of SAM, IC50=Ki×1.5 (Ki=IC50/1.5). For the assay performed in the presence of MTA, IC50=Ki×13.5 (Ki=IC50/13.5). Column 6 indicates the ratio between the Ki of compounds in the presence of SAM and the Ki of compounds in the presence of MTA

In assay [2] the test system is HAP1 MTAP-intact cell line. Description: SDMA in-cell western assay, HAP1 MTAP-intact. In kind it is cell-based. Particulars: Homo sapiens. Summed up: (§2)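 IC50 values come from an SDMA in-cell western run in isogenic HAP1 cells, either MTAP-null or expressing endogenous MTAP. The intact-to-deleted IC50 ratio is used to score MTAP selectivity.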
Assay [3] relates to HAP1 MTAP-deleted cell line. Description: SDMA in-cell western assay, HAP1 MTAP-deleted. In kind it is cell-based. Particulars: for IC50: Homo sapiens, HAP1 MTAP-deleted (MTAP-null) cell line; for MTAP Intact/Deleted Ratio: IC50 ratio HAP1 MTAP-intact / HAP1 MTAP-deleted, >=3 fold considered MTAP-selective. The method, boiled down: as §2
Assay [4] addresses T1, PRMT5. Description: PRMT5 inhibition assay with SAM as cofactor. The assay is classed as biochemical. The settings on record: against PRMT5 in the presence of SAM as cofactor.
Source text: as §1

The target in assay [5] is T1, PRMT5. Description: PRMT5 inhibition assay with no cofactor. In kind it is biochemical. Particulars: against PRMT5 with no cofactor; read-out: No Co-factor IC50.

T1 sequence (O14744 whole entry): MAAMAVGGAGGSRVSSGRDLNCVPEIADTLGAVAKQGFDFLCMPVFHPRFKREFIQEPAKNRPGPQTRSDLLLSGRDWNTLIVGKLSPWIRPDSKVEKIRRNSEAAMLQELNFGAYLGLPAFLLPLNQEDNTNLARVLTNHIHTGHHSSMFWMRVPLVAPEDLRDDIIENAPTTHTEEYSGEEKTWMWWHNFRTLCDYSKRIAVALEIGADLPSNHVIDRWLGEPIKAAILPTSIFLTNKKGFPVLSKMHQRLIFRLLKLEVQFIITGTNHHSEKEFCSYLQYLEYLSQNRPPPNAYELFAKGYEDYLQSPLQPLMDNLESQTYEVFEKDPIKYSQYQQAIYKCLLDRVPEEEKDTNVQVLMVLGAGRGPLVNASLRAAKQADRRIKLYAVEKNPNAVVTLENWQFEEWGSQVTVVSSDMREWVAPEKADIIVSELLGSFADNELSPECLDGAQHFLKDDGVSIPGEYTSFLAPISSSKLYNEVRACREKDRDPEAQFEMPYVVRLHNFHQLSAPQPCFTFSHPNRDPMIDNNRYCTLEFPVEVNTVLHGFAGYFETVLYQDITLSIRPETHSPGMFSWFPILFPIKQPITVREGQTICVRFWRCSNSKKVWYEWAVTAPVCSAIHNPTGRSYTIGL
T1 sequence (Q9BQA1 whole entry partner): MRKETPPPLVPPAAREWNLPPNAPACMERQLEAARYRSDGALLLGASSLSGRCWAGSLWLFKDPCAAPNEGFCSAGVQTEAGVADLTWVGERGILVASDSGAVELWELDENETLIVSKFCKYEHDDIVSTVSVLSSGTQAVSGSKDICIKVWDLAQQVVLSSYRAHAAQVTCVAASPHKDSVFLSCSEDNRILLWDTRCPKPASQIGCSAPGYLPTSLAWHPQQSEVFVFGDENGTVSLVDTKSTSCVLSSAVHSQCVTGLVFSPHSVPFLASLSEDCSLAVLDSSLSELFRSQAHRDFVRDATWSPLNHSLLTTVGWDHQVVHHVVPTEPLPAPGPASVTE

For the compound `CC(=O)N1CCN(c2cc(C(=O)NC[C@@H](O)[C@@H]3Cc4ccc(OCc5ocnc5C)cc4CN3)cc(NC3CCC3)n2)CC1` [Compound 29, 2-(4-acetylpiperazin-1-yl)-6-(cyclobutylamino)-N—((R)-2-hydroxy-2-((S)-7-((4-methyloxazol-5-yl)methoxy)-1,2,3,4-tetrahydroisoquinolin-3-yl)ethyl)isonicotinamide], the 50% inhibitory concentration (IC50) against PRMT5 [1] is less than 0.05 µM; in assay [2], 1 to 10 µM; in assay [3], less than 1 µM; at PRMT5 [4] it was 0.05 to 0.5 µM; on PRMT5 [5], 0.05 to 0.5 µM. Also, the “SAM/MTA Ratio” value at PRMT5 [1] is “A (a Ki ratio greater than or equal to 10 fold between the Ki in the presence of SAM and the Ki in the presence of MTA)”. Further, the “MTAP Intact/Deleted Ratio” value in assay [3] is “A* (an IC50 ratio greater than or equal to 10 fold between the IC50 in the HAP1 MTAP-intact cell line and the HAP1 MTAP-deleted cell line)”.

In the case of `CCOc1cc(C(=O)N2C3CCC2COC3)ccc1C(=O)NC[C@@H](O)[C@@H]1Cc2ccc(OCc3cnco3)cc2CN1` [Compound 11, 4-(3-oxa-8-azabicyclo[3.2.1]octane-8-carbonyl)-2-ethoxy-N—((R)-2-hydroxy-2-((S)-7-(oxazol-5-ylmethoxy)-1,2,3,4-tetrahydroisoquinolin-3-yl)ethyl)benzamide], the IC50 is 0.05 to 0.5 µM against PRMT5 [1]; 1 to 10 µM in assay [2]; less than 1 µM in assay [3]; 0.05 to 0.5 µM on PRMT5 [4]; 0.5 to 5 µM at PRMT5 [5]. The “SAM/MTA Ratio” value on PRMT5 [1] was “A (a Ki ratio greater than or equal to 10 fold between the Ki in the presence of SAM and the Ki in the presence of MTA)”. The “MTAP Intact/Deleted Ratio” value in assay [3] is “B* (an IC50 ratio greater than or equal to 3 fold but lower than 10 fold between the IC50 in the HAP1 MTAP-intact cell line and the HAP1 MTAP-deleted cell line)”.

Turning to `O=C(NC[C@@H](O)[C@@H]1Cc2ccc(OCc3cnco3)cc2CN1)c1ccc(C(=O)N2[C@@H]3CCC[C@H]2COC3)cc1` [Compound 7, 4-((1R,5S)-3-oxa-9-azabicyclo[3.3.1]nonane-9-carbonyl)-N—((R)-2-hydroxy-2-((S)-7-(oxazol-5-ylmethoxy)-1,2,3,4-tetrahydroisoquinolin-3-yl)ethyl)benzamide], the IC50 on PRMT5 [1] was 0.05 to 0.5 µM; in assay [2] it was not below 10 µM; in assay [3] it was 1 to 10 µM; at PRMT5 [4], 0.05 to 0.5 µM; on PRMT5 [5] it was 0.5 to 5 µM. The “SAM/MTA Ratio” value at PRMT5 [1] was “A (a Ki ratio greater than or equal to 10 fold between the Ki in the presence of SAM and the Ki in the presence of MTA)”. The “MTAP Intact/Deleted Ratio” value in assay [3] was “B* (an IC50 ratio greater than or equal to 3 fold but lower than 10 fold between the IC50 in the HAP1 MTAP-intact cell line and the HAP1 MTAP-deleted cell line)”.

As to `CCOc1cc(C(=O)N2[C@@H]3CCC[C@H]2COC3)ccc1C(=O)NC[C@@H](O)[C@@H]1Cc2ccc(OCc3cnco3)cc2CN1` [Compound 13, 4-((1R,5S)-3-oxa-9-azabicyclo[3.3.1]nonane-9-carbonyl)-2-ethoxy-N—((R)-2-hydroxy-2-((S)-7-(oxazol-5-ylmethoxy)-1,2,3,4-tetrahydroisoquinolin-3-yl)ethyl)benzamide], the concentration for half-maximal inhibition (IC50) is 0.05 to 0.5 µM against PRMT5 [1]; 1 to 10 µM in assay [2]; less than 1 µM in assay [3]; 0.05 to 0.5 µM at PRMT5 [4]; 0.5 to 5 µM on PRMT5 [5]. For the same compound, on PRMT5 [1], the “SAM/MTA Ratio” value was “A (a Ki ratio greater than or equal to 10 fold between the Ki in the presence of SAM and the Ki in the presence of MTA)”. In addition, in assay [3], the “MTAP Intact/Deleted Ratio” value was “A* (an IC50 ratio greater than or equal to 10 fold between the IC50 in the HAP1 MTAP-intact cell line and the HAP1 MTAP-deleted cell line)”.

In the case of `CCOc1cc(C(=O)N2C3CCC2COC3)ccc1C(=O)NC[C@@H](O)[C@@H]1Cc2ccc(OCc3ccnn3C)cc2CN1` [Compound 5, 4-(3-oxa-8-azabicyclo[3.2.1]octane-8-carbonyl)-2-ethoxy-N—((R)-2-hydroxy-2-((S)-7-((1-methyl-1H-pyrazol-5-yl)methoxy)-1,2,3,4-tetrahydroisoquinolin-3-yl)ethyl)benzamide], the IC50 against PRMT5 [1] is 0.05 to 0.5 µM; in assay [2] it was less than 1 µM; in assay [3], less than 1 µM; on PRMT5 [4] it was 0.05 to 0.5 µM; at PRMT5 [5] it was 0.5 to 5 µM. Moreover, the “SAM/MTA Ratio” value on PRMT5 [1] was “A (a Ki ratio greater than or equal to 10 fold between the Ki in the presence of SAM and the Ki in the presence of MTA)”. The “MTAP Intact/Deleted Ratio” value in assay [3] was “C* (an IC50 ratio of less than 3 fold between the IC50 in the HAP1 MTAP-intact cell line and the HAP1 MTAP-deleted cell line)”.

As to `O=C(NC[C@@H](O)[C@@H]1Cc2ccc(OCc3cn[nH]c3)cc2CN1)c1ccc(C(=O)N2CCOCC2)cc1` [Compound 4, N—((R)-2-((S)-7-((1H-pyrazol-4-yl)methoxy)-1,2,3,4-tetrahydroisoquinolin-3-yl)-2-hydroxyethyl)-4-(morpholine-4-carbonyl)benzamide], the IC50 on PRMT5 [1] was 0.05 to 0.5 µM; in assay [2], not below 10 µM; in assay [3] it was 1 to 10 µM; on PRMT5 [4] it was 0.05 to 0.5 µM; on PRMT5 [5], 0.05 to 0.5 µM. For the same compound, the “SAM/MTA Ratio” value at PRMT5 [1] was “A (a Ki ratio greater than or equal to 10 fold between the Ki in the presence of SAM and the Ki in the presence of MTA)”. Further, in assay [3], the “MTAP Intact/Deleted Ratio” value was “C* (an IC50 ratio of less than 3 fold between the IC50 in the HAP1 MTAP-intact cell line and the HAP1 MTAP-deleted cell line)”.

Regarding `Cc1ncoc1COc1ccc2c(c1)CN[C@H]([C@H](O)CNC(=O)c1cc(NC3CCC3)cc(N3CCCCC3)c1)C2` [Compound 58, 3-(cyclobutylamino)-N-[(2R)-2-hydroxy-2-[(3S)-7-[(4-methyloxazol-5-yl)methoxy]-1,2,3,4-tetrahydroisoquinolin-3-yl]ethyl]-5-(1-piperidyl)benzamide], the IC50 was less than 0.05 µM at PRMT5 [1]; 1 to 10 µM in assay [2]; less than 1 µM in assay [3]; 0.05 to 0.5 µM at PRMT5 [4]; 0.05 to 0.5 µM at PRMT5 [5]. Also, the “SAM/MTA Ratio” value at PRMT5 [1] was “A (a Ki ratio greater than or equal to 10 fold between the Ki in the presence of SAM and the Ki in the presence of MTA)”. Further, the “MTAP Intact/Deleted Ratio” value in assay [3] is “A* (an IC50 ratio greater than or equal to 10 fold between the IC50 in the HAP1 MTAP-intact cell line and the HAP1 MTAP-deleted cell line)”.

`CC(=O)N1CCC(Nc2cc(C(=O)NC[C@@H](O)[C@@H]3Cc4ccc(OCc5ocnc5C)cc4CN3)cc(N3CCCCC3)n2)CC1` [Compound 40, 2-[(1-acetyl-4-piperidyl)amino]-N-[(2R)-2-hydroxy-2-[(3S)-7-[(4-methyloxazol-5-yl)methoxy]-1,2,3,4-tetrahydroisoquinolin-3-yl]ethyl]-6-(1-piperidyl)pyridine-4-carboxamide]: the IC50 is less than 0.05 µM at PRMT5 [1]; 1 to 10 µM in assay [2]; less than 1 µM in assay [3]; 0.05 to 0.5 µM on PRMT5 [4]; 0.05 to 0.5 µM at PRMT5 [5]. In addition, the “SAM/MTA Ratio” value on PRMT5 [1] is “A (a Ki ratio greater than or equal to 10 fold between the Ki in the presence of SAM and the Ki in the presence of MTA)”. Besides, in assay [3], the “MTAP Intact/Deleted Ratio” value is “A* (an IC50 ratio greater than or equal to 10 fold between the IC50 in the HAP1 MTAP-intact cell line and the HAP1 MTAP-deleted cell line)”.

Take `CC(=O)N1CC(Nc2cc(C(=O)NC[C@@H](O)[C@@H]3Cc4ccc(OCc5ocnc5C)cc4CN3)nc(N3CC4CC(C4)C3)n2)C1` [Compound 51, 6-[(1-acetylazetidin-3-yl)amino]-2-(3-azabicyclo[3.1.1]heptan-3-yl)-N-[(2R)-2-hydroxy-2-[(3S)-7-[(4-methyloxazol-5-yl)methoxy]-1,2,3,4-tetrahydroisoquinolin-3-yl]ethyl]pyrimidine-4-carboxamide]: the IC50 is less than 0.05 µM on PRMT5 [1]; 1 to 10 µM in assay [2]; less than 1 µM in assay [3]; 0.05 to 0.5 µM at PRMT5 [4]; 0.05 to 0.5 µM on PRMT5 [5]. For the same compound, the “SAM/MTA Ratio” value at PRMT5 [1] was “A (a Ki ratio greater than or equal to 10 fold between the Ki in the presence of SAM and the Ki in the presence of MTA)”. Further, the “MTAP Intact/Deleted Ratio” value in assay [3] was “A* (an IC50 ratio greater than or equal to 10 fold between the IC50 in the HAP1 MTAP-intact cell line and the HAP1 MTAP-deleted cell line)”.

On to `Cc1ncoc1COc1ccc2c(c1)CN[C@H]([C@H](O)CNC(=O)c1cc(NC3CC4(CCC4)C3)ncn1)C2` [Compound 43, N-[(2R)-2-hydroxy-2-[(3S)-7-[(4-methyloxazol-5-yl)methoxy]-1,2,3,4-tetrahydroisoquinolin-3-yl]ethyl]-6-(spiro[3.3]heptan-2-ylamino)pyrimidine-4-carboxamide], for which the half-inhibitory concentration (IC50) against PRMT5 [1] was less than 0.05 µM; in assay [2] it was 1 to 10 µM; in assay [3], less than 1 µM; at PRMT5 [4] it was 0.05 to 0.5 µM; at PRMT5 [5] it was 0.05 to 0.5 µM. In addition, the “SAM/MTA Ratio” value at PRMT5 [1] is “A (a Ki ratio greater than or equal to 10 fold between the Ki in the presence of SAM and the Ki in the presence of MTA)”. Besides, the “MTAP Intact/Deleted Ratio” value in assay [3] is “A* (an IC50 ratio greater than or equal to 10 fold between the IC50 in the HAP1 MTAP-intact cell line and the HAP1 MTAP-deleted cell line)”.

As usually defined, the IC50 is the concentration at which inhibition is half-maximal.
